# Laboratory results taken from PubChem BioAssay (NCI).
# Several values for one entry are separate records, joined by “and”; a condition that tells them apart may be missing. Equal entries are not always repeated.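 Grown in 96-well plates, cells were treated for 48 hours with each compound at five concentrations. Insufficient inhibition: endpoint recorded as highest concentration tested. The concentration for 50% growth inhibition is given as GI50. TGI: total growth inhibition.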
# Experiments:
# Assay in all cases: NCI anticancer screen, dose series, 48 h
# NCI-H522 lung = system: NCI-H522 lung
# A549 NSCLC = system: A549 NSCLC
# DLD-1 colon = system: DLD-1 colon
# KM20L2 colon = system: KM20L2 colon
# TK-10 renal = system: TK-10 renal
# M19-MEL melanoma = system: M19-MEL melanoma
# LXFL 529 NSCLC = system: LXFL 529 NSCLC
# NCI-H460 lung = system: NCI-H460 lung
# U251 CNS = system: U251 CNS
# OVCAR-5 ovarian = system: OVCAR-5 ovarian
# HCC-2998 colon = system: HCC-2998 colon
# DU-145 prostate = system: DU-145 prostate
SMILES,TGI (NCI-H522 lung),TGI (A549 NSCLC) [µM],TGI (DLD-1 colon) [µM],TGI (KM20L2 colon) [µM],TGI (TK-10 renal) [µM],TGI (M19-MEL melanoma) [µM],TGI (LXFL 529 NSCLC) [µM],TGI (NCI-H460 lung) [µM],TGI (U251 CNS) [µM],TGI (OVCAR-5 ovarian) [µM],TGI (HCC-2998 colon) [µM],TGI (DU-145 prostate) [µM],GI50 (NCI-H522 lung),GI50 (A549 NSCLC) [µM],GI50 (HCC-2998 colon) [µM],GI50 (TK-10 renal) [µM],GI50 (DU-145 prostate) [µM],GI50 (NCI-H460 lung) [µM],GI50 (U251 CNS) [µM],GI50 (OVCAR-5 ovarian) [µM]
O=C(c1ccc(Cl)cc1)N(C(=S)N1CCN(c2ccccc2)CC1)c1ccccc1,> 100 µM,> 100,> 100,> 100,> 100,> 100,> 100,> 100,> 100,> 100,–,–,–,–,–,–,–,–,–,–
Cc1ccc(S(=O)(=O)OCC23CCC(C4CC42)C2CC23)cc1 (centres undefined),–,> 100,> 100,> 100,> 100,> 100,> 100,> 100,> 100,> 100,> 100,–,–,–,–,–,–,–,–,–
Cc1ccc(C2=Nc3ccccc3NC(=O)C2)cc1,> 100 µM,> 100,> 100,> 100,> 100,> 100,> 100,> 100,> 100,> 100,> 100,–,–,–,–,–,–,–,–,–
CC1(C)N=C(N)N=C(N)N1c1ccc(CCCCc2ccc(Cl)cc2Cl)cc1,14.3 µM,14.7,–,–,15.7,–,–,2.48,15.2,20.9,17.4,17.3,–,–,–,–,–,–,–,–
C[C@@H]1CCN(C(=O)CC#N)C[C@@H]1N(C)c1ncnc2[nH]ccc12,> 100 µM,> 100,–,–,> 100,–,–,> 100,> 100,> 100,> 100,> 100,> 100 µM,> 100,> 100,38.1,> 100,> 100,> 100,27.4
CCOC(=O)C1(Cc2ccccc2)CCN(C(=O)c2ccccc2)C2C1C2(Cl)Cl (centres undefined),42.5 µM,> 100,–,–,59.8,–,–,35.9,32.6,98.4,30.5,> 100,–,–,–,–,–,–,–,–
O=C(c1ccco1)N1CCN(C(=O)c2ccco2)C1=S,19.4 µM,35.5,–,–,19.8,–,–,30,24,39.8,25.7,7.99,–,–,–,–,–,–,–,–
CCN(CC)C(=S)N/N=C(\C)c1ccccc1O,33 µM,43.4,> 100,59.2,> 100,> 100,> 100,97.4,89,–,> 100,–,–,–,–,–,–,–,–,–
O=C(NCCCCNCCCNC(=O)C(F)(F)F)C(F)(F)F,> 100 µM,> 100,–,–,> 100,–,–,> 100,> 100,> 100,> 100,> 100,–,–,–,–,–,–,–,–
O=[N+]([O-])C(=C/C1CCCCC1)/C(=C\C1CCCCC1)[N+](=O)[O-],4.3 µM,49,–,–,16.8,–,–,12.5,14.7,38.8,36.4,26.7,–,–,–,–,–,–,–,–
COc1ccccc1/C=C1/Sc2scc(CC(=O)Nc3ccccc3)[n+]2C1=O,73.4 µM,> 100,–,–,74.3,–,–,> 100,> 100,> 100,> 100,> 100,–,–,–,–,–,–,–,–
COc1cc2cnc3c(c2cc1OC)Cc1cc2c(cc1-3)OCO2,–,> 54.5,–,–,2.83,–,–,0.034,0.517,77.9,0.0562,> 54.1,< 0.01 µM,< 0.0153,< 0.01,< 0.01,0.0338,< 0.01,< 0.01,35.5
C#CCSc1cnc2ccccc2c1Sc1c[nH]c2ccccc2c1=O,29.1 µM,> 100,–,–,> 100,–,–,59.8,50,> 100,38.2,> 100,–,–,–,–,–,–,–,–
COc1ccc(CN=C2Nc3ccncc3S(=O)(=O)N2c2ccccc2)cc1,> 100 µM,> 100,–,–,59.9,–,–,> 100,> 100,> 100,54.9,> 100,–,–,–,–,–,–,–,–
CC(=O)O/C(=C(/C#N)C(=O)O)C1C(C(=O)O)C(c2ccccc2[N+](=O)[O-])C=C(c2ccco2)N1c1ccncc1 (centres undefined),11.3 µM,26.7,–,–,11.3,–,–,19.3,4.89,27.4,9.45,21.4,–,–,–,–,–,–,–,–
CC1=NN(C(=O)CC(=O)Nc2cccc(Cl)c2)C(=O)C1N=Nc1ccc(S(=O)(=O)c2ccc(N=NC3C(=O)N(C(=O)CC(=O)Nc4cccc(Cl)c4)N=C3C)cc2)cc1 (centres undefined),> 100 µM,> 100,–,–,> 100,–,–,> 100,> 100,> 100,> 100,> 100,–,–,–,–,–,–,–,–
CCCN(CCC)C(=O)Cc1c2n(c3ccccc13)Cc1ccccc1-2,> 100 µM,> 100,> 100,> 100,> 100,> 100,> 100,> 100,> 100,–,> 100,–,–,–,–,–,–,–,–,–
COC(=O)c1ccc(NCC2=CC(=O)c3ccccc3C2=O)cc1,42.3 µM,96.7,–,–,37.1,–,–,35.6,63,49.5,> 63.3,31.3,–,–,–,–,–,–,–,–
Cc1cc2c(cc1Cl)Sc1nnc(C)n1S2(=O)=O,23.4 µM,97.2,–,–,56.9,–,–,78.5,42.8,97.7,33.9,65,–,–,–,–,–,–,–,–
C/C=C/[C@@H]1O[C@H](CC#C[Si](C)(C)C)[C@@]2(C=O)C(C)=CC[C@H](C(C)C)[C@@H]12,4.78 µM,64.5,–,–,31.5,–,–,39.8,34.4,40.2,36.5,51.8,–,–,–,–,–,–,–,–
CNS(=O)(=O)NN(C)S(=O)(=O)c1ccc(Br)cc1,> 100 µM,> 100,–,> 100,> 100,> 100,> 100,–,> 100,–,> 100,–,–,–,–,–,–,–,–,–
CC(C)(N=NC(C)(C)C1=NCCN1)C1=NCCN1,> 100 µM and 60 µM,> 100,–,–,> 100,–,–,> 100,> 100,> 100,> 100,> 100,9.38 µM and 21.4 µM,–,–,–,–,–,–,–
Cc1ccc(NNc2cc(=O)[nH]c(=O)[nH]2)cc1Cl,32.8 µM,> 100,–,–,33.1,–,–,> 100,30,> 100,29.8,> 100,–,–,–,–,–,–,–,–
O=C(CN=C(CN(c1ccccc1)c1ccccc1)Oc1c([N+](=O)[O-])cc([N+](=O)[O-])cc1[N+](=O)[O-])N1CCNCC1,> 100 µM,> 100,–,–,> 100,–,–,> 100,> 100,> 100,> 100,> 100,–,–,–,–,–,–,–,–
Cn1c2ccccc2n2c3ccccc3c(=S)c(C#N)c12,> 100 µM,> 100,–,–,> 100,–,–,> 100,> 100,> 100,> 100,> 100,–,–,–,–,–,–,–,–
CCOC(=O)c1cc2cc(CSc3ccccc3)ccc2oc1=O,> 100 µM,> 100,–,–,> 100,–,–,> 100,> 100,> 100,> 100,> 100,–,–,–,–,–,–,–,–
CC(=O)/C=C/c1c[nH]c(=O)[nH]c1=O,295 µM,1090,790,508,–,771,–,613,503,618,480,–,–,–,–,–,–,–,–,–
